Laboratory results reported in patent US20080161232A1, “C5a Receptor Antagonist” (JERINI AG, priority 2005, published 2008).
Positions of bridges follow the written chain, without caps; N, C: chain ends. Non-standard residues stand in square brackets, D forms with d. Residues, ends and D or L forms follow the SMILES beside them. *: point of attachment. Phe(3,4,5-F3) = N[C@@H](Cc1cc(F)c(F)c(F)c1)C(=O)O; Phe(3,4-Cl2) = N[C@@H](Cc1ccc(Cl)c(Cl)c1)C(=O)O; Phe(2-CF3) = N[C@@H](Cc1ccccc1C(F)(F)F)C(=O)O; Phe(3-Cl) = N[C@@H](Cc1cccc(Cl)c1)C(=O)O; Phe(3-OMe) = COc1cccc(C[C@H](N)C(=O)O)c1; Phe(2-Cl) = N[C@@H](Cc1ccccc1Cl)C(=O)O; Phe(3-F) = N[C@@H](Cc1cccc(F)c1)C(=O)O; Phe(4-F) = N[C@@H](Cc1ccc(F)cc1)C(=O)O; dPhe(2-Me) = Cc1ccccc1C[C@@H](N)C(=O)O; 2Nal = N[C@@H](Cc1ccc2ccccc2c1)C(=O)O; Phe(2-F) = N[C@@H](Cc1ccccc1F)C(=O)O; X10 = CCN(CC)[C@@H](Cc1ccccc1)C(=O)*; Bta = N[C@@H](Cc1csc2ccccc12)C(=O)O; d(hLeu) = CC(C)CC[C@@H](N)C(=O)O; 2Thi = N[C@@H](Cc1cccs1)C(=O)O; Cha = N[C@@H](CC1CCCCC1)C(=O)O; dCha = N[C@H](CC1CCCCC1)C(=O)O; Nle = CCCC[C@H](N)C(=O)O; Orn = NCCC[C@H](N)C(=O)O; Aze = O=C(O)[C@@H]1CCN1; Propionyl = CCC(=O)*

molecular target: T1, human C5aR(CD88) (Homo sapiens, UniProt P21730); experiment: Determination of the IC50 value in an enzyme release assay (functional assay, antagonistic activity); type: cell-based; details: activity (group)
T1 construct: expressed in transfected cells; host or cells: rat basophilic leukemia cells (RBL)
T1 sequence (P21730 1-350): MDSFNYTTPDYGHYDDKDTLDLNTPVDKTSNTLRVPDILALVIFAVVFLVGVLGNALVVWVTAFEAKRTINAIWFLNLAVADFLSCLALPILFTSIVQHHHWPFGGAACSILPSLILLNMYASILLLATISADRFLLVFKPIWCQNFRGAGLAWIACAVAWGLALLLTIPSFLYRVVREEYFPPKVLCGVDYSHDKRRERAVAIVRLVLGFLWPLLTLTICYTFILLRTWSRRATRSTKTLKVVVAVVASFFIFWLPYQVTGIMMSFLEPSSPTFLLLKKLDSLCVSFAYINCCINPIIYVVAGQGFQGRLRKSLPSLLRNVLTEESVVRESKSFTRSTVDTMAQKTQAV

| SMILES | IC50 [nM] |
| --- | --- |
| CC(=O)N[C@@H](Cc1ccccc1)C(=O)N[C@@H](CCCN)C(=O)N1CCC[C@H]1C(=O)N[C@H](CCC(C)C)C(=O)N[C@@H](Cc1cccc(Cl)c1)C(=O)N[C@@H](Cc1ccccc1)C(N)=O [Compound 291, Ac-Phe-Orn-Pro-hle-Mcf-Phe-NH2] (Ac-F[Orn]P[d(hLeu)][Phe(3-Cl)]F-NH2) | 50 to 200 |
| CC(=O)N[C@@H](Cc1ccccc1)C(=O)N[C@@H](CCCN)C(=O)N1CCC[C@H]1C(=O)N[C@H](CCC(C)C)C(=O)N[C@@H](Cc1ccc(F)cc1)C(=O)N[C@@H](Cc1ccccc1)C(N)=O [Compound 302, Ac-Phe-Orn-Pro-hle-Pff-Phe-NH2] (Ac-F[Orn]P[d(hLeu)][Phe(4-F)]F-NH2) | 50 to 200 |

same assay, conditions: antagonistic activity; IC50 group in enzyme release assay, RBL cells expressing human C5aR(CD88); read-out: activity (group)

| IC50 [nM] | SMILES |
| --- | --- |
| 50 to 200 | CC(=O)N[C@@H](Cc1ccccc1)C(=O)N[C@@H](CCCN)C(=O)N1CCC[C@H]1C(=O)N[C@H](CCC(C)C)C(=O)N[C@@H](Cc1ccc(F)cc1)C(=O)N[C@@H](Cc1ccc(F)cc1)C(N)=O [Compound 301, Ac-Phe-Orn-Pro-hle-Pff-Pff-NH2] (Ac-F[Orn]P[d(hLeu)][Phe(4-F)][Phe(4-F)]-NH2) |
| 50 to 200 | CC(=O)N[C@@H](Cc1ccccc1)C(=O)N[C@@H](CCCN)C(=O)N1CCC[C@H]1C(=O)N[C@H](CCC(C)C)C(=O)N[C@@H](Cc1ccccc1)C(=O)N[C@@H](Cc1ccccc1)C(N)=O [Compound 304, Ac-Phe-Orn-Pro-hle-Phe-Phe-NH2] (Ac-F[Orn]P[d(hLeu)]FF-NH2) |
| 50 to 200 | CC(=O)N[C@@H](Cc1ccccc1)C(=O)N[C@@H](CCCN)C(=O)N1CCC[C@H]1C(=O)N[C@H](CCC(C)C)C(=O)N[C@@H](Cc1c[nH]c2ccccc12)C(=O)N[C@@H](Cc1ccccc1)C(N)=O [Compound 306, Ac-Phe-Orn-Pro-hle-Trp-Phe-NH2] (Ac-F[Orn]P[d(hLeu)]WF-NH2) |
| 5 to 10 | CC[C@@H](C)[C@@H](NC(=O)[C@@H]1CCCN1C(=O)[C@H](CCCN)NC(=O)[C@H](Cc1ccccc1)NC(C)=O)C(=O)N[C@@H](Cc1c[nH]c2ccccc12)C(=O)N[C@@H](Cc1ccccc1)C(N)=O [Compound 307, Ac-Phe-Orn-Pro-ile-Trp-Phe-NH2] (Ac-F[Orn]P[dI]WF-NH2) |
| 20 to 50 | CC(=O)N[C@@H](Cc1ccccc1)C(=O)N[C@@H](CCCN)C(=O)N[C@@H](CO)C(=O)N[C@H](CC1CCCCC1)C(=O)N[C@@H](Cc1csc2ccccc12)C(=O)N[C@@H](Cc1ccccc1)C(N)=O [Compound 309, Ac-Phe-Orn-Ser-cha-Bta-Phe-NH2] (Ac-F[Orn]S[dCha][Bta]F-NH2) |
| 10 to 20 | CC(=O)N[C@@H](CO)C(=O)N[C@@H](Cc1ccccc1)C(=O)N[C@@H](CCCN)C(=O)N1CC[C@H]1C(=O)N[C@H](CC1CCCCC1)C(=O)N[C@@H](Cc1csc2ccccc12)C(=O)N[C@@H](Cc1ccccc1)C(N)=O [Compound 310, Ac-Ser-Phe-Orn-Aze-cha-Bta-Phe-NH2] (Ac-SF[Orn][Aze][dCha][Bta]F-NH2) |
| 50 to 200 | CC(=O)N[C@@H](Cc1cccs1)C(=O)N[C@H]1CCCNC(=O)[C@H](Cc2ccccc2)NC(=O)[C@H](Cc2csc3ccccc23)NC(=O)[C@@H](CCC(C)C)NC(=O)[C@@H]2CCCN2C1=O [Compound 311, Ac-Thi-[Orn-Pro-hle-Bta-Phe]] (Ac-[2Thi][Orn]P[d(hLeu)][Bta]F; lactam 2-C) |
| 20 to 50 | CC(=O)N[C@@H](Cc1cccs1)C(=O)N[C@@H](CCCN)C(=O)N1CCC[C@H]1C(=O)N[C@H](CC1CCCCC1)C(=O)N[C@@H](Cc1csc2ccccc12)C(=O)N[C@@H](Cc1ccccc1)C(N)=O [Compound 312, Ac-Thi-Orn-Pro-cha-Bta-Phe-NH2] (Ac-[2Thi][Orn]P[dCha][Bta]F-NH2) |
| 20 to 50 | CC(=O)N[C@@H](Cc1cccs1)C(=O)N[C@@H](CCCN)C(=O)N1CCC[C@H]1C(=O)N[C@H](CC1CCCCC1)C(=O)N[C@@H](Cc1csc2ccccc12)C(=O)N[C@@H](Cc1cccs1)C(N)=O [Compound 313, Ac-Thi-Orn-Pro-cha-Bta-Thi-NH2] (Ac-[2Thi][Orn]P[dCha][Bta][2Thi]-NH2) |
| 20 to 50 | CC(=O)N[C@H](C(=O)N[C@@H](Cc1ccccc1)C(=O)N[C@@H](CCCN)C(=O)N1CC[C@H]1C(=O)N[C@H](CC1CCCCC1)C(=O)N[C@@H](Cc1csc2ccccc12)C(=O)N[C@@H](Cc1ccccc1)C(N)=O)[C@@H](C)O [Compound 314, Ac-Thr-Phe-Orn-Aze-cha-Bta-Phe-NH2] (Ac-TF[Orn][Aze][dCha][Bta]F-NH2) |
| 50 to 200 | CCCC[C@@H]1NC(=O)[C@H](Cc2csc3ccccc23)NC(=O)[C@@H](CC2CCCCC2)NC(=O)[C@@H]2CCCN2C(=O)[C@@H](NCc2ccccc2)CCCNC1=O [Compound 315, Bzl-[Orn-Pro-cha-Bta-Nle]] |
| 50 to 200 | CCCC[C@@H]1NC(=O)[C@H](Cc2c[nH]c3ccccc23)NC(=O)[C@@H](CCC(C)C)NC(=O)[C@H](CO)NC(=O)[C@@H](NC(=O)[C@H](Cc2ccccc2)N(CC)CC)CCCNC1=O [Compound 317, Def-[Orn-Ser-hle-Trp-Nle]] (X10-[Orn]S[d(hLeu)]W[Nle]; lactam 1-C) |

Continued, compound first:

| SMILES | IC50 [nM] |
| --- | --- |
| CC(=O)N[C@@H](Cc1ccccc1)C(=O)N[C@@H](CCCN)C(=O)N1CCC[C@H]1C(=O)N[C@H](CCC(C)C)C(=O)N[C@@H](Cc1cccc(Cl)c1)C(=O)N[C@@H](Cc1ccc(F)cc1)C(N)=O [Compound 290, Ac-Phe-Orn-Pro-hle-Mcf-Pff-NH2] (Ac-F[Orn]P[d(hLeu)][Phe(3-Cl)][Phe(4-F)]-NH2) | 50 to 200 |
| CC(=O)N[C@@H](Cc1ccccc1)C(=O)N[C@@H](CCCN)C(=O)N1CCC[C@H]1C(=O)N[C@H](CCC(C)C)C(=O)N[C@@H](Cc1cccc(F)c1)C(=O)N[C@@H](Cc1ccccc1)C(N)=O [Compound 292, Ac-Phe-Orn-Pro-hle-Mff-Phe-NH2] (Ac-F[Orn]P[d(hLeu)][Phe(3-F)]F-NH2) | 50 to 200 |
| COc1cccc(C[C@H](NC(=O)[C@@H](CCC(C)C)NC(=O)[C@@H]2CCCN2C(=O)[C@H](CCCN)NC(=O)[C@H](Cc2ccccc2)NC(C)=O)C(=O)N[C@@H](Cc2ccccc2)C(N)=O)c1 [Compound 293, Ac-Phe-Orn-Pro-hle-Mmy-Phe-NH2] (Ac-F[Orn]P[d(hLeu)][Phe(3-OMe)]F-NH2) | 50 to 200 |
| CC(=O)N[C@@H](Cc1ccccc1)C(=O)N[C@@H](CCCN)C(=O)N1CCC[C@H]1C(=O)N[C@H](CCC(C)C)C(=O)N[C@@H](Cc1ccccc1Cl)C(=O)N[C@@H](Cc1ccccc1)C(N)=O [Compound 294, Ac-Phe-Orn-Pro-hle-Ocf-Phe-NH2] (Ac-F[Orn]P[d(hLeu)][Phe(2-Cl)]F-NH2) | 50 to 200 |
| CC(=O)N[C@@H](Cc1ccccc1)C(=O)N[C@@H](CCCN)C(=O)N1CCC[C@H]1C(=O)N[C@H](CCC(C)C)C(=O)N[C@@H](Cc1ccccc1F)C(=O)N[C@@H](Cc1ccccc1)C(N)=O [Compound 295, Ac-Phe-Orn-Pro-hle-Off-Phe-NH2] (Ac-F[Orn]P[d(hLeu)][Phe(2-F)]F-NH2) | 50 to 200 |
| CC(=O)N[C@@H](Cc1ccccc1)C(=O)N[C@@H](CCCN)C(=O)N1CCC[C@H]1C(=O)N[C@H](CCC(C)C)C(=O)N[C@@H](Cc1ccccc1C(F)(F)F)C(=O)N[C@@H](Cc1ccccc1)C(N)=O [Compound 296, Ac-Phe-Orn-Pro-hle-Otf-Phe-NH2] (Ac-F[Orn]P[d(hLeu)][Phe(2-CF3)]F-NH2) | 50 to 200 |
| CC(=O)N[C@@H](Cc1ccccc1)C(=O)N[C@@H](CCCN)C(=O)N1CCC[C@H]1C(=O)N[C@H](CCC(C)C)C(=O)N[C@@H](Cc1ccc(F)cc1)C(=O)N[C@@H](Cc1ccc2ccccc2c1)C(N)=O [Compound 297, Ac-Phe-Orn-Pro-hle-Pff-2Ni—NH2] (Ac-F[Orn]P[d(hLeu)][Phe(4-F)][2Nal]-NH2) | 50 to 200 |
| CC(=O)N[C@@H](Cc1ccccc1)C(=O)N[C@@H](CCCN)C(=O)N1CCC[C@H]1C(=O)N[C@H](CCC(C)C)C(=O)N[C@@H](Cc1ccc(F)cc1)C(=O)N[C@@H](CC1CCCCC1)C(N)=O [Compound 298, Ac-Phe-Orn-Pro-hle-Pff-Cha-NH2] (Ac-F[Orn]P[d(hLeu)][Phe(4-F)][Cha]-NH2) | 50 to 200 |
| CC(=O)N[C@@H](Cc1ccccc1)C(=O)N[C@@H](CCCN)C(=O)N1CCC[C@H]1C(=O)N[C@H](CCC(C)C)C(=O)N[C@@H](Cc1ccc(F)cc1)C(=O)N[C@@H](Cc1ccc(Cl)c(Cl)c1)C(N)=O [Compound 299, Ac-Phe-Orn-Pro-hle-Pff-Eaa-NH2] (Ac-F[Orn]P[d(hLeu)][Phe(4-F)][Phe(3,4-Cl2)]-NH2) | 50 to 200 |
| COc1cccc(C[C@H](NC(=O)[C@H](Cc2ccc(F)cc2)NC(=O)[C@@H](CCC(C)C)NC(=O)[C@@H]2CCCN2C(=O)[C@H](CCCN)NC(=O)[C@H](Cc2ccccc2)NC(C)=O)C(N)=O)c1 [Compound 300, Ac-Phe-Orn-Pro-hle-Pff-Mmy-NH2] (Ac-F[Orn]P[d(hLeu)][Phe(4-F)][Phe(3-OMe)]-NH2) | 50 to 200 |
| CC(=O)N[C@@H](Cc1ccccc1)C(=O)N[C@@H](CCCN)C(=O)N1CCC[C@H]1C(=O)N[C@H](CCC(C)C)C(=O)N[C@@H](Cc1cc(F)c(F)c(F)c1)C(=O)N[C@@H](Cc1ccccc1)C(N)=O [Compound 305, Ac-Phe-Orn-Pro-hle-Tff-Phe-NH2] (Ac-F[Orn]P[d(hLeu)][Phe(3,4,5-F3)]F-NH2) | 50 to 200 |
| CC(=O)N[C@@H](Cc1ccccc1)C(=O)N[C@@H](CCCN)C(=O)N1CCC[C@H]1C(=O)N[C@H](Cc1ccccc1C)C(=O)N[C@@H](Cc1csc2ccccc12)C(=O)N[C@@H](Cc1ccccc1)C(N)=O [Compound 308, Ac-Phe-Orn-Pro-omf-Bta-Phe-NH2] (Ac-F[Orn]P[dPhe(2-Me)][Bta]F-NH2) | 50 to 200 |
| CCC(=O)N[C@@H](Cc1ccccc1)C(=O)N[C@@H](CCCN)C(=O)N1CCC[C@H]1C(=O)N[C@H](CC1CCCCC1)C(=O)N[C@@H](Cc1csc2ccccc12)C(=O)N[C@@H](Cc1ccccc1)C(N)=O [Compound 316, CH3CH2CO-Phe-Orn-Pro-cha-Bta-Phe-NH2] (Propionyl-F[Orn]P[dCha][Bta]F-NH2) | 20 to 50 |
